Measured values published in patent US6080758A, “Benzenesulfonamide derivatives as bradykinin antagonists” (Fournier Industrie et Sante, priority 1995, dated 2000).

Biological target: T1, bradykinin B2 receptor (Cavia porcellus, UniProt O70526)
T1 construct: Ileum segments are isolated from male guinea-pigs; tissue Iffa Credo, l'Arbresle, France (supplier of the animals); host or cells: ileum membranes of male Dunkin-Hartley guinea-pigs
T1 sequence (O70526 1-372): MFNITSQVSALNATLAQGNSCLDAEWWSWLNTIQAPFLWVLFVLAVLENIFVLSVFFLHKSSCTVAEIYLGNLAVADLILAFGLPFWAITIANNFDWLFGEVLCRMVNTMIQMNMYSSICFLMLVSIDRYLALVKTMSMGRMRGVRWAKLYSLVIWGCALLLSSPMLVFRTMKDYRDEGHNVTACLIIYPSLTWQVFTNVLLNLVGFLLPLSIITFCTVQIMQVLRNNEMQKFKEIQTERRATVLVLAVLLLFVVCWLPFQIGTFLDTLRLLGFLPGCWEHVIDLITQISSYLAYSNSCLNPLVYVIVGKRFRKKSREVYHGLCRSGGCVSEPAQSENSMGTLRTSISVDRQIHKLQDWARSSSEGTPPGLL
Assay: [3H]-bradykinin binding to guinea-pig ileum membranes
Details: test compound 10^-6 M, [3H]-bradykinin 120 pM, 90 min at 20° C., read-out: Activity (%): percentage inhibition of the binding of [3H]-bradykinin
Protocol: We used the following pharmacological test: Ileum segments are isolated from male guinea-pigs of the Dunkin-Hartley strain (Iffa Credo, l'Arbresle, France) and ground in the following TES buffer: TES 25 mM, 1,10-phenanthroline 1 mM (pH 6.8), bacitracin 140 μg/ml, BSA 1 g/l. The membranes are then isolated by centrifugation (18,000 rpm; 20 min; 4° C.). The binding studies are carried out in the TES buffer using [^3 H]-bradykinin (120 pM) and 50 μg of membrane protein per test (final volume 500 μl) with an equilibrium time of 90 min at 20° C. The percentage inhibition of the binding of [^3 H]-bradykinin is then determined in the presence of one of the test compounds according to the invention at a concentration of 10^-6 M.
The results obtained (indicated as "activity") from these tests are collated in Table I below with reference to the Examples given in the description.

inhibition at 1 µM [%]	SMILES
97.8	COC(=O)C1CCCN1S(=O)(=O)c1ccc(Cl)c(COc2cccc3ccc(C)nc23)c1Cl (racemic) [Example 1, N-[[3-[(2-Methylquinolin-8-yl)oxymethyl]-2,4-dichlorophenyl]sulfonyl]-D,L-proline Methyl Ester]
76.9	Cc1ccc2cccc(OCc3c(Cl)ccc(S(=O)(=O)N4CCCC4C(=O)OCCCN(C)C)c3Cl)c2n1 (racemic) [Example 11, N-[[3-[(2-Methylquinolin-8-yl)oxymethyl]-2,4-dichlorophenyl]sulfonyl]-D,L-proline 3-(dimethylamino)propyl Ester]
98.6	COC(=O)[C@@H]1CCCN1S(=O)(=O)c1ccc(Cl)c(COc2cccc3ccc(C)nc23)c1Cl [Example 2, N-[[3-[(2-Methylquinolin-8-yl)oxymethyl]-2,4-dichlorophenyl]sulfonyl]-L-proline Methyl Ester]
92.6	COCCNC(=O)C1CCCN1S(=O)(=O)c1ccc(Cl)c(COc2cccc3ccc(C)nc23)c1Cl (stereo not shown) [Example 4, 1-[[3-[(2-Methylquinolin-8-yl)oxymethyl]-2,4-dichlorophenyl]sulfonyl]-N-[2-methoxyethyl]-2-pyrrolidinecarboxamide]
90.1	Cc1ccc2cccc(OCc3c(Cl)ccc(S(=O)(=O)N4CCCC4C(=O)NCCO)c3Cl)c2n1 (stereo not shown) [Example 5, 1-[[3-[(2-Methylquinolin-8-yl)oxymethyl]-2,4-dichlorophenyl]sulfonyl]-N-[2-hydroxyethyl]-2-pyrrolidinecarboxamide]
90.9	Cc1ccc2cccc(OCc3c(Cl)ccc(S(=O)(=O)N4CCCC4C(=O)NCCCO)c3Cl)c2n1 (stereo not shown) [Example 6]
97.8	Cc1ccc2cccc(OCc3c(Cl)ccc(S(=O)(=O)N4CCCC4C(=O)NCCCCCO)c3Cl)c2n1 (stereo not shown) [Example 7, 1-[[3-[(2-Methylquinolin-8-yl)oxymethyl]-2,4-dichlorophenyl]sulfonyl]-N-[5-hydroxypentyl]-2-pyrrolidinecarboxamide]
95.5	Cc1ccc2cccc(OCc3c(Cl)ccc(S(=O)(=O)N4CCCC4C(=O)NCCN(C)C)c3Cl)c2n1 (stereo not shown) [Example 8, 1-[[3-[(2-Methylquinolin-8-yl)oxymethyl]-2,4-dichlorophenyl]sulfonyl]-N-[2-dimethylaminoethyl]-2-pyrrolidinecarboxamide Dihydrochioride]
97.6	Cc1ccc2cccc(OCc3c(Cl)ccc(S(=O)(=O)N4CCCC4C(=O)NCCCN)c3Cl)c2n1 (stereo not shown) [Example 9, 1-[[3-[(2-Methylquinolin-8-yl)oxymethyl]-2,4-dichlorophenyl]sulfonyl]-N-[3-aminopropyl]-2-pyrrolidinecarboxamide]
96.4	Cc1ccc2cccc(OCc3c(Cl)ccc(S(=O)(=O)N4CCCC4C(=O)NCc4ccccc4)c3Cl)c2n1 (stereo not shown) [Example 10, 1-[[3-[(2-Methylquinolin-8-yl)oxymethyl]-2,4-dichlorophenyl]sulfonyl]-N-[phenylmethyl]-2-pyrrolidinecarboxamide]
98.5	CCNC(=O)[C@@H]1CCCN1S(=O)(=O)c1ccc(Cl)c(COc2cccc3ccc(C)nc23)c1Cl [Example 12, 1-[[3-[(2-Methylquinolin-8-yl)oxymethyl]-2,4-dichlorophenyl]sulfonyl]-N-ethyl-2-(S)-pyrrolidinecarboxamide]
98.6	CC(=O)NC1CCN(S(=O)(=O)c2ccc(Cl)c(COc3cccc4ccc(C)nc34)c2Cl)C1 (stereo not shown) [Example 13, 3-[(1-Oxoethyl)amino]-1-[[3-[(2-methylquinolin-8-yl)oxymethyl]-2,4-dichlorophenyl]sulfonyl]pyrrolidine]
94	Cc1ccc2cccc(OCc3c(Cl)ccc(S(=O)(=O)N4CCC(O)C4)c3Cl)c2n1 (stereo not shown) [Example 14, 3-Hydroxy-1-[[3-[(2-methylquinolin-8-yl)oxymethyl]-2,4-dichlorophenyl]-sulfonyl]pyrrolidine]
94.9	Cc1ccc2cccc(OCc3c(Cl)ccc(S(=O)(=O)N4CCSC4)c3Cl)c2n1 [Example 15, 3-[[3-[(2-Methylquinolin-8-yl)oxymethyl]-2,4-dichlorophenyl]sulfonyl]-thiazolidine]
90.1	Cc1ccc2cccc(OCc3c(Cl)ccc(S(=O)(=O)N4CCCC4)c3Cl)c2n1 [Example 16, 1-[[3-[(2-Methylquinolin-8-yl)oxymethyl]-2,4-dichlorophenyl]sulfonyl]-pyrrolidine]
93.8	Cc1ccc2cccc(OCc3c(Cl)ccc(S(=O)(=O)n4cccc4)c3Cl)c2n1 [Example 17, 1-[[3-[(2-Methylquinolin-8-yl)oxymethyl]-2,4-dichlorophenyl]sulfonyl]pyrrole]
